Legend:
[1] = tested on: amyotrophic lateral sclerosis (ALS) patients; experiment: Clinical studies: treatment of ALS patients by infusion; format: in vivo, human
[2] = tested on: amyotrophic lateral sclerosis (ALS) patients; experiment: as above; format: in vivo, human; remark: listed apart in the source
Procedure: The surprising activity of the compounds of formula I and of medicaments containing these ingredients in the treatment of ALS patients can be seen from the following examples of effects which resulted after administration of orotyl-L-histidyl-L-prolinamide in clinical studies. This active ingredient was filled in lyophilized form in 6 mg portions in bottles, closed with rubber stoppers, also containing 12 mg mannitol.
A patient with bulbar palsy caused by ALS was treated three times daily (at 4 hour intervals) on four consecutive days in form of short infusions (i.e. within 30 minutes) with the active ingredient. The total cumulative doses were on the first day 18 mg, on the second day 36 mg, on the third day 54 mg and on the fourth day 72 mg. The single doses for each infusion were dissolved in 100 ml of a sterile isotonic solution of sodium chloride.
Another ALS patient, suffering for eight months from ALS, was treated in the same manner as described above. […] For instance, they became able to lift their arms above horizontal, to walk without a stick, to climb stairs without support, and they became independent in activities of everyday life (such as shaving, washing, cutting with a knife, using a fork, writing, etc.).
Three other ALS patients, who had been ill for five, seven and twelve months, respectively, were each treated on four consecutive days three times daily with 24 mg of the active ingredient, dissolved in 5% aqueous glucose solution, by intravenous infusion, applied within 30 minutes. […] Again the observed side effects were insignificant and could be neglected.

[3] = Example 3: three ALS patients, 24 mg three times daily, four days, intravenous infusion

With `NC(=O)[C@@H]1CCCN1C(=O)[C@H](Cc1c[nH]cn1)NC(=O)c1cc(=O)[nH]c(=O)[nH]1` [orotyl-L-histidyl-L-prolinamide] the “effect on hand musculature” value ([1]; Example 4: one ALS patient with pronounced atrophy of the hand muscles, total 18 mg on one day (infusions of 6 mg at four hour intervals)) was “evident effect on the hand musculature”, the “persistence of effect after ending of medication” value ([1]; Example 4: total 18 mg on one day by infusion) was “remained for some time” and the “improvement in bulbar symptoms” value ([2]; Example 1: one patient with bulbar palsy caused by ALS, short infusions (30 minutes) three times daily on four consecutive days, daily totals 18, 36, 54, 72 mg) was “remarkable improvements in the bulbar symptoms”. The “persistence of improvement after medication ended” value ([2]; Example 1: patient with bulbar palsy, four-day infusion treatment) was “remained for several days”, the “side effects of the treatment” value ([2]; Example 1: short infusions three times daily, four days, daily totals 18, 36, 54, 72 mg) was “insignificant” and the “persistence of improvement after therapy finished” value ([2]; Example 2: four days therapy, same regimen as Example 1) was “sustained for some days”. The “improvement in muscle weakness” value ([2]; Example 2: one patient suffering for eight months from ALS, same regimen as Example 1) was “striking improvement in muscle weakness”, the “improvement in everyday motor abilities” value ([2]; Example 3: three ALS patients, 24 mg three times daily on four consecutive days, intravenous infusion in 5% glucose within 30 minutes) was “Remarkable improvements were noted in using buttons and zippers and in the ability to walk without assistance” and the clonic reflexes [2, 3] was “changed to normal”. For the same molecule, the observed side effects [2, 3] was “insignificant” and the “tendency to become fatigued” value [2, 3] was “reduced”.
